The experiment relates to normal human melanocytes. Briefly: Melanin production inhibition test using cultured normal human melanocytes (14C-thiouracil incorporation). It counts as cell-based. As to conditions: control = 100%; for activity at 5 µM: addition amount 5.0 μM; for activity at 20 µM: addition amount 20 μM; for activity at 10 µM: addition amount 10 μM; for activity at 3.1 µM: addition amount 3.1 μM; for activity at 1.6 µM: addition amount 1.6 μM; for activity at 8 µM: addition amount 8.0 μM. The protocol:
The inhibitory effect on melanin production of the melanin production inhibitor of the present invention can be measured using thiouracil which is incorporated specifically into cells in a melanin synthesis process in the cells. For example, the amount of melanin production can be measured by measuring an amount of thiouracil incorporated into cells by measuring an amount of radiation with radiolabeled thiouracil.
The inhibitory effect on melanin production of Compound 1 was evaluated using 2-thiouracil (^14C-labeled 2-thiouracil was used in this test) which is incorporated specifically into melanin in an intracellular melanin synthesis process. Complete medium for culture of melanocytes (manufactured by Kurabo Industries Ltd.) was added to 15 wells in a 24-well plate in an amount of 2 mL per well, and normal human melanocytes (manufactured by Kurabo Industries Ltd.) were seeded into the wells at a concentration of 1.5×10^4 cells/cm^2. The cells were cultured in a 5% carbon dioxide atmosphere at 37° C. for 24 hours. Thereafter, the medium in all the wells was exchanged under the following conditions: fresh complete medium for culture of melanocytes (control) was used in three wells; each of complete medium for culture of melanocytes, which including Compound 1 at concentrations of 1.0 μM, 2.0 μM, and 4.0 μM, was used in a total of nine wells including three wells for each concentration; and complete medium for culture of melanocytes, each of which including arbutin (positive control) known as a melanin production inhibitor at a concentration of 0.5 mM (500 μM), was used in the other three wells. Further, 2-[2-^14C]thiouracil (^14C-labeled thiouracil) was added to each of these 15 wells at 0.25×10^−6 Ci (curie). Then, the cells were cultured for further 3 days under the same conditions as the above. After the completion of culture, the culture medium was removed from the wells, and the cells were washed with phosphate buffered physiological saline (PBS) and then separated from the bottoms of the wells with medium including trypsin and EDTA to prepare cell suspensions, followed by centrifugation to collect the cells. The number of the cells was counted using a hemocytometer. Thereafter, the amounts of ^14C-thiouracil in the cells collected from each well (0.25×10^−6 Ci) were measured using a liquid scintillation counter (ALOKA CO., LTD.). The percentages of an amount of radioactivity in the cells cultured in the medium including the test substances with respect to an amount of radioactivity in the cells collected from the well of the control were calculated as amounts of melanin (%). That is, as the amount of radioactivity incorporated into the cells is smaller, the amount of melanin is evaluated to be smaller, i.e., the melanin inhibition effect of the component added is evaluated to be larger.
Inhibitory effects on melanin production of Compounds 2 to 39 (however, the effects of Compound 9 and 15 were not measured) were examined in the same procedure as in Test Example 1.
These were examined in the same procedure as in Test Example 1.
Further, the results of melanin production inhibition by treatment with the respective test compounds, determined in the same procedure as in Test Example 1, are also shown in the table.

The mark [1] stands for this setting: Homo sapiens, Melanocyte, Table 2.

In turn, `CC(c1ccccc1)(c1ccc(O)cc1)c1ccc(O)cc1` [4,4′-(1-Phenylidene)-bisphenol] registered an Amount of melanin (Table 3, addition amount 3.0 μM) of 44.8 ± 1.0%.

As to `Oc1ccc(C2(c3ccc(O)cc3)CCCCC2)cc1` [4,4′-Cyclohexylidenebisphenol], the activity at 3 µM (Homo sapiens, Melanocyte, Table 3, addition amount 3.0 μM) was 38.3 ± 2.5%.

Regarding `CC(c1ccc(O)cc1)c1ccc(O)cc1` [4,4′-Ethylidenebisphenol], under “Homo sapiens, Melanocyte, Table 3, addition amount 25 μM”, the activity at 25 µM was found to be 30.5 ± 6.1%.

In turn, `Oc1ccc(C(c2ccccc2)(c2ccccc2)c2ccccc2)cc1` [4-Tritylphenol] had an activity at 1.25 µM (Homo sapiens, Melanocyte, Table 3, addition amount 1.25 μM) of 27 ± 0.4%.

`OC[C@H]1O[C@@H](Oc2ccc(O)cc2)[C@H](O)[C@@H](O)[C@@H]1O` [Arbutin, arbutin, reference compound]: the activity at 500 µM (Homo sapiens, Melanocyte, addition amount 500 μM, mean ± SD of three samples) worked out at 64.6 ± 2.3%.

In the case of `c1ccc(C(c2ccccc2)(c2ccccc2)N2CCNCC2)cc1` [Compound 7, 1-(triphenylmethyl)piperazine], the activity at 6 µM (Homo sapiens, Melanocyte, Table 2, addition amount 6.0 μM) amounted to 51.1 ± 5.8%.

The molecule `c1ccc(C(c2ccccc2)(c2ccccc2)N2CCOCC2)cc1` [Compound 8, N-(triphenylmethyl)morpholine] had an activity at 2.5 µM (Homo sapiens, Melanocyte, Table 2, addition amount 2.5 μM) of 39.2 ± 10.7%.

`c1ccc(C(c2ccccc2)(c2ccncc2)N2CCCCC2)cc1` [Compound 10, 1-{[diphenyl(4-pyridyl)]methyl}piperidine] yielded an activity at 0.3 µM (Homo sapiens, Melanocyte, Table 2, addition amount 0.3 μM) of 77.3 ± 0.4%.

In the case of `O=C1CCC(=O)N1C(c1ccccc1)(c1ccccc1)c1ccccc1` [Compound 11, 1-(triphenylmethyl)succinimide], the activity at 15 µM (Homo sapiens, Melanocyte, Table 2, addition amount 15 μM) was 53.7 ± 0.9%.

`O[C@@H]1CCN(C(c2ccccc2)(c2ccccc2)c2ccccc2)C1` [Compound 12, (R)-1-triphenylmethyl-3-pyrrolidinol] registered an activity at 5 µM under setting [1] of 62.9 ± 3.7%.

`OC(c1ccccc1)c1ccc2ccccc2c1` (stereo not shown) [Compound 13, [(naphthyl)phenyl]methanol]: the activity at 20 µM under setting [1] was 68.7 ± 5.2%.

In the case of `OC(c1ccccc1)(c1ccccn1)c1ccccn1` [Compound 16, di(2-pyridyl)phenylmethanol], the activity at 100 µM (Homo sapiens, Melanocyte, Table 2, addition amount 100 μM) is 91.5 ± 4.6%.

Under setting [1], `COc1ccc(C(O)(c2ccccc2)c2ccccc2)cc1` [Compound 17, [diphenyl(4-methoxyphenyl)]methanol] had an activity at 10 µM of 37 ± 1.5%.

`COc1ccc(C(O)(c2ccccc2)c2ccc(OC)cc2)cc1` [Compound 18, [bis(4-methoxyphenyl)phenyl]methanol] gave an activity at 10 µM under setting [1] of 55.3 ± 3.4%.

In the case of `COc1ccc(C(c2ccccc2)(c2ccccc2)N2CCCCC2)cc1` [Compound 19, 1-[[(4-methoxyphenyl)diphenyl]methyl]piperidine], the activity at 3.1 µM under setting [1] amounted to 51.5 ± 5.7%.

`COc1ccc(C(c2ccccc2)(c2ccc(OC)cc2)N2CCCCC2)cc1` [Compound 20, 1-[[bis(4-methoxyphenyl)phenyl]methyl]piperidine]: the activity at 3.1 µM under setting [1] stood at 73.2 ± 3.2%.

For `COc1ccc(C(c2ccc(OC)cc2)(c2ccc(OC)cc2)N2CCCCC2)cc1` [Compound 21, 1-[tris(4-methoxyphenyl)methyl]piperidine], under “Homo sapiens, Melanocyte, Table 2, addition amount 12.5 μM”, the activity at 12.5 µM was determined as 53.5 ± 0.4%.

For `Cc1ccc(C(O)(c2ccc(C)cc2)c2ccc(C)cc2)cc1` [Compound 22, tris(4-methylphenyl)methanol], the activity at 1.6 µM under setting [1] is 50.6 ± 2%.

In turn, `Cc1ccc(C(O)(c2ccccc2)c2ccc(C)cc2)cc1` [Compound 23, [bis(4-methylphenyl)phenyl]methanol] had an activity at 3.1 µM under setting [1] of 47.2 ± 0.2%.

Under setting [1], `Cc1ccc(C(O)(c2ccccc2)c2ccccc2)cc1` [Compound 24, [diphenyl(4-methylphenyl)]methanol] had an activity at 3.1 µM of 51.6 ± 1.6%.

In turn, `Cc1ccc(C(c2ccccc2)(c2ccccc2)N2CCCCC2)cc1` [Compound 25, [[diphenyl(4-methylphenyl)]methyl]piperidine] yielded an activity at 1.6 µM under setting [1] of 48 ± 1.9%.

`Cc1ccc(C(c2ccc(C)cc2)(c2ccc(C)cc2)N2CCCCC2)cc1` [Compound 27, 1-[tris(4-methylphenyl)methyl]piperidine] yielded an activity at 3.1 µM under setting [1] of 47.5 ± 0.6%.

Turning to `c1ccc(C(c2ccccc2)N2CCCC2)cc1` [Compound 28, 1-(diphenylmethyl)pyrrolidine], the activity at 60 µM (Homo sapiens, Melanocyte, Table 2, addition amount 60 μM) was determined as 77.3 ± 5.6%.

Under setting [1], `Cc1ccc(C(c2ccc(C)cc2)N2CCCC2)cc1` [Compound 29, 1-[bis(4-methylphenyl)methyl]pyrrolidine] returned an activity at 20 µM of 49 ± 1.9%.

The molecule `CCNC(c1ccccc1)(c1ccccc1)c1ccccc1` [Compound 30, N-(triphenylmethyl)-N-ethylamine] returned an activity at 8 µM under setting [1] of 41.4 ± 0.7%.

As to `COc1ccc(C(OCCO)(c2ccccc2)c2ccccc2)cc1` [Compound 31, 2-[[diphenyl(4-methoxyphenyl)]methyloxy]ethanol], the activity at 3.1 µM under setting [1] amounted to 37.6 ± 3.3%.

For the molecule `COc1ccc(C(OCCO)(c2ccccc2)c2ccc(OC)cc2)cc1` [Compound 32, 2-[bis(4-methoxyphenyl)phenylmethyloxy]ethanol], the activity at 3.1 µM under setting [1] is 58.8 ± 7.1%.

Under setting [1], `COc1ccc(C(NCCO)(c2ccccc2)c2ccccc2)cc1` [Compound 33, 2-[[diphenyl(4-methoxyphenyl)]methylamino]ethanol] gave an activity at 5 µM of 67.7 ± 5.1%.

With `COc1ccc(C(NCCO)(c2ccccc2)c2ccc(OC)cc2)cc1` [Compound 34, 2-[[bis(4-methoxyphenyl)phenyl]methylamino]ethanol], the activity at 5 µM under setting [1] is 71.4 ± 1.9%.

On to `COc1ccc(C(OCCN)(c2ccccc2)c2ccccc2)cc1` [Compound 35, 2-[[diphenyl (4-methoxyphenyl)]methyloxy]ethylamine], for which, under setting [1], the activity at 5 µM was found to be 80.4 ± 8.8%.

Molecule `COc1ccc(C(OCCN)(c2ccccc2)c2ccc(OC)cc2)cc1` [Compound 36, 2-[[bis(4-methoxyphenyl)phenyl]methyloxy]ethylamine] showed an activity at 10 µM under setting [1] of 71.7 ± 5.1%.

`OCCN(CCO)C(c1ccccc1)(c1ccccc1)c1ccccc1` [Compound 37, N,N-[bis(2-hydroxyethyl)]-N-(triphenylmethyl)amine] returned an activity at 4 µM (Homo sapiens, Melanocyte, Table 2, addition amount 4.0 μM) of 69.6 ± 3.9%.

In turn, `OCC(O)COC(c1ccccc1)(c1ccccc1)c1ccccc1` (stereo not shown) [Compound 38, 1,2-dihydroxy-3-(triphenylmethyloxy)propane] had an activity at 8 µM under setting [1] of 75.6 ± 0.2%.

As to `O=C(O)[C@H](CO)NC(c1ccccc1)(c1ccccc1)c1ccccc1` [Compound 39, N-(triphenylmethyl) serine], the activity at 8 µM under setting [1] was found to be 54.9 ± 5.5%.

Values taken from patent US8846012B2, “Melanin production inhibitor” (Pola Chemical Industries Inc., priority 2008, dated 2014).
